In patent US7138361B2, “Herbicidal heterocycles” (E. I. du Pont de Nemours and Company, priority 2000, dated 2006):

Key:
Format in all cases: in vivo
[1] = tested on: duck salad (Heteranthera limosa); test: Test C flooded paddy test; conditions: for Ducksalad plant response rating: Flooded Paddy, scale 0 to 100, 0 no effect, 100 complete control; for Plant response rating, Ducksalad: flooded paddy test, scale 0 to 100 (0 no effect, 100 complete control)
In short: (§1)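 Visually assessed vs untreated controls 12–14 d post-treatment (greenhouse). Flooded paddy plants were at the 2-leaf stage; scale 0 = no effect, 100 = complete control.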

[2] = tested on: rice (Oryza saliva); test: Test C flooded paddy test; conditions: for Rice plant response rating: Flooded Paddy, scale 0 to 100, 0 no effect, 100 complete control; for Plant response rating, Rice: flooded paddy test, scale 0 to 100 (0 no effect, 100 complete control)
In short: as §1

[3] = tested on: smallflower flatsedge (Cyperus difformis); test: Test C flooded paddy test; conditions: for Flatsedge plant response rating: Flooded Paddy, scale 0 to 100, 0 no effect, 100 complete control; for Plant response rating, Flatsedge: flooded paddy test, scale 0 to 100 (0 no effect, 100 complete control)
In short: as §1

[4] = tested on: barnyardgrass (Echinochloa crus-galli); test: Test C flooded paddy test; conditions: for Barnyardgrass plant response rating: Flooded Paddy, scale 0 to 100, 0 no effect, 100 complete control; for Plant response rating, Barnyardgrass: flooded paddy test, scale 0 to 100 (0 no effect, 100 complete control)
In short: as §1

[5] = tested on: rice (Oryza saliva); test: Test B preemergence
In short: (§2)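 Greenhouse test: chemicals are formulated in a surfactant-containing non-phytotoxic solvent and applied either preemergence to planted seeds or postemergence to plants 2 to 18 cm tall. Response is rated visually versus controls after 13 to 15 days, 0 meaning no effect and 100 complete control.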

[6] = tested on: morning glory (Ipomoea hederacea); test: Test B preemergence
In short: as §2

[7] = tested on: crabgrass (Digitaria sanguinalis); test: Test B preemergence
In short: as §2

[8] = tested on: lambsquarters (Chenopodium album); test: Test B preemergence
In short: as §2

[9] = tested on: pigweed (Amaranthus retroflexus); test: Test B preemergence
In short: as §2

[10] = tested on: velvetleaf (Abutilon theophrasti); test: Test B preemergence
In short: as §2

[11] = tested on: corn (Zea mays); test: Test B preemergence
In short: as §2

[12] = tested on: giant foxtail (Setaria faberii); test: Test B preemergence
In short: as §2

[13] = tested on: barnyardgrass (Echinochloa crus-galli); test: Test B preemergence
In short: as §2

[14] = tested on: cocklebur (Xanthium strumarium); test: Test B preemergence
In short: as §2

[15] = tested on: Surinam grass (Brachiaria decumbens); test: Test B preemergence
In short: as §2

[16] = tested on: blackgrass (Alopecurus myosuroides); test: Test B postemergence; conditions: 13 to 15 days
Description: (§3) Seeds selected from barnyardgrass (Echinochloa crus-galli), Surinam grass (Brachiaria decumbens), cocklebur (Xanthium strumarium), corn (Zea mays), crabgrass (Digitaria sanguinalis), giant foxtail (Setaria faberii), lambsquarters (Chenopodium album), morning glory (Ipomoea hederacea), pigweed (Amaranthus retroflexus), rice (Oryza saliva) and velvetleaf (Abutilon theophrasti) were planted and treated preemergence with test chemicals formulated in a non-phytotoxic solvent mixture which included a surfactant.
(§4) At the same time, plants selected from these crop and weed species and also blackgrass (Alopecurus myosuroides), wheat (Triticum aestivum) and wild oat (Avena fatua) were treated with postemergence applications of test chemicals formulated in the same manner. Plants ranged in height from 2 to 18 cm (1- to 4-leaf stage) for postemergence treatments. Plant species in the flooded paddy test consisted of rice (Oryza saliva), smallflower flatsedge (Cyperus difformis), duck salad (Heteranthera limosa) and barnyardgrass (Echinochloa crus-galli) grown to the 2-leaf stage for testing. Treated plants and controls were maintained in a greenhouse for 13 to 15 days, after which time all species were compared to controls and visually evaluated. Plant response ratings, summarized in Table B, are based on a scale of 0 to 100 where 0 is no effect and 100 is complete control. A dash (-) response means no test result.

[17] = tested on: wheat (Triticum aestivum); test: Test B postemergence; conditions: Rate 500 g/ha, scale 0 to 100, 0 is no effect, 100 is complete control, 13 to 15 days
Description: as §3, §4

[18] = tested on: wild oat (Avena fatua); test: Test B postemergence; conditions: Rate 500 g/ha, scale 0 to 100, 0 is no effect, 100 is complete control, 13 to 15 days
Description: as §3, §4

[19] = tested on: morning glory (Ipomoea hederacea); test: Test B postemergence; conditions: Rate 500 g/ha, scale 0 to 100, 0 is no effect, 100 is complete control, 13 to 15 days
Description: as §3, §4

[20] = tested on: crabgrass (Digitaria sanguinalis); test: Test B postemergence; conditions: 13 to 15 days
Description: as §3, §4

[21] = tested on: lambsquarters (Chenopodium album); test: Test B postemergence; conditions: Rate 500 g/ha, scale 0 to 100, 0 is no effect, 100 is complete control, 13 to 15 days
Description: as §3, §4

[22] = tested on: pigweed (Amaranthus retroflexus); test: Test B postemergence; conditions: Rate 500 g/ha, scale 0 to 100, 0 is no effect, 100 is complete control, 13 to 15 days
Description: as §3, §4

[23] = tested on: velvetleaf (Abutilon theophrasti); test: Test B postemergence; conditions: Rate 500 g/ha, scale 0 to 100, 0 is no effect, 100 is complete control, 13 to 15 days
Description: as §3, §4

[24] = tested on: corn (Zea mays); test: Test B postemergence; conditions: 13 to 15 days
Description: as §3, §4

[25] = tested on: giant foxtail (Setaria faberii); test: Test B postemergence; conditions: 13 to 15 days
Description: as §3, §4

[26] = tested on: barnyardgrass (Echinochloa crus-galli); test: Test B postemergence; conditions: 13 to 15 days
Description: as §3, §4

[27] = tested on: cocklebur (Xanthium strumarium); test: Test B postemergence; conditions: 13 to 15 days
Description: as §3, §4

[28] = tested on: Surinam grass (Brachiaria decumbens); test: Test B postemergence; conditions: 13 to 15 days
Description: as §3, §4

[29] = Preemergence, Rate 500 g/ha, scale 0 to 100, 0 no effect, 100 complete control
[30] = preemergence, Rate 125 g/ha, scale of 0 to 100 where 0 is no effect and 100 is complete control, 13 to 15 days
[31] = Rate 125 g/ha, scale 0 (no effect) to 100 (complete control)
[32] = Rate 500 g/ha, scale 0 to 100, 0 is no effect, 100 is complete control

Cc1ccc(N2CCC(n3ccc(C(C)(C)C)n3)C2=O)cc1OCCI (centres unmarked) [Compound 108]
Ducksalad plant response rating ([1]; Rate 250 g/ha): 0
Ducksalad plant response rating ([1]; Rate 500 g/ha): 0
Plant response rating, Ducksalad ([1]; Rate 62 g/ha): 0
Plant response rating, Ducksalad ([1]; Rate 125 g/ha): 0
Rice plant response rating ([2]; Rate 250 g/ha): 0
Rice plant response rating ([2]; Rate 500 g/ha): 0
Plant response rating, Rice ([2]; Rate 62 g/ha): 0
Plant response rating, Rice ([2]; Rate 125 g/ha): 0
Flatsedge plant response rating ([3]; Rate 250 g/ha): 30
Flatsedge plant response rating ([3]; Rate 500 g/ha): 90
Plant response rating, Flatsedge ([3]; Rate 62 g/ha): 0
Plant response rating, Flatsedge ([3]; Rate 125 g/ha): 0
Barnyardgrass plant response rating ([4]; Rate 250 g/ha): 0
Barnyardgrass plant response rating ([4]; Rate 500 g/ha): 20
Plant response rating, Barnyardgrass ([4]; Rate 62 g/ha): 0
Plant response rating, Barnyardgrass ([4]; Rate 125 g/ha): 0
Plant response rating, Rice [5, 29]: 0
Plant response rating, Rice [5, 30]: 0
Plant response rating, Morningglory [6, 29]: 0
Plant response rating, Morningglory [6, 30]: 0
Plant response rating, Crabgrass [7, 29]: 0
Plant response rating, Crabgrass [7, 30]: 0
Plant response rating, Lambsquarters [8, 29]: 100
Plant response rating, Lambsquarters [8, 30]: 100
Plant response rating, Pigweed [9, 29]: 60
Plant response rating, Pigweed [9, 30]: 20
Plant response rating, Velvetleaf [10, 29]: 0
Plant response rating, Velvetleaf [10, 30]: 0
Plant response rating, Corn [11, 29]: 0
Plant response rating, Corn [11, 30]: 0
Plant response rating, Foxtail, Giant [12, 29]: 20
Plant response rating, Foxtail, Giant [12, 30]: 0
Plant response rating, Barnyardgrass [13, 29]: 0
Plant response rating, Barnyardgrass [13, 30]: 0
Plant response rating, Cocklebur [14, 29]: 0
Plant response rating, Cocklebur [14, 30]: 0
Plant response rating, Surinam grass [15, 29]: 30
Plant response rating, Surinam grass [15, 30]: 0
Plant response rating, Blackgrass [16, 31]: 0
Plant response rating, Blackgrass [16, 32]: 0
Plant response rating, Wheat [17]: 0
Plant response rating, Wild Oat [18]: 0
Plant response rating, Morningglory [19]: 70
Plant response rating, Crabgrass [20, 31]: 0
Plant response rating, Crabgrass [20, 32]: 0
Plant response rating, Lambsquarters [21]: 80
Plant response rating, Pigweed [22]: 40
Plant response rating, Velvetleaf [23]: 60
Plant response rating, Corn [24, 31]: 0
Plant response rating, Corn [24, 32]: 0
Plant response rating, Foxtail, Giant [25, 31]: 0
Plant response rating, Foxtail, Giant [25, 32]: 0
Plant response rating, Barnyardgrass [26, 31]: 0
Plant response rating, Barnyardgrass [26, 32]: 0
Plant response rating, Cocklebur [27, 31]: 20
Plant response rating, Cocklebur [27, 32]: 40
Plant response rating, Surinam grass [28, 31]: 0
Plant response rating, Surinam grass [28, 32]: 20

Cc1ccc(N2CCC(n3ccc(C(C)(C)C)n3)C2=O)cc1OC(C)C (centres unmarked) [Compound 110]
Ducksalad plant response rating ([1]; Rate 250 g/ha): 70
Ducksalad plant response rating ([1]; Rate 500 g/ha): 70
Plant response rating, Ducksalad ([1]; Rate 62 g/ha): 10
Plant response rating, Ducksalad ([1]; Rate 125 g/ha): 20
Rice plant response rating ([2]; Rate 250 g/ha): 70
Rice plant response rating ([2]; Rate 500 g/ha): 80
Plant response rating, Rice ([2]; Rate 62 g/ha): 0
Plant response rating, Rice ([2]; Rate 125 g/ha): 30
Flatsedge plant response rating ([3]; Rate 250 g/ha): 100
Flatsedge plant response rating ([3]; Rate 500 g/ha): 100
Plant response rating, Flatsedge ([3]; Rate 62 g/ha): 50
Plant response rating, Flatsedge ([3]; Rate 125 g/ha): 50
Barnyardgrass plant response rating ([4]; Rate 250 g/ha): 70
Barnyardgrass plant response rating ([4]; Rate 500 g/ha): 80
Plant response rating, Barnyardgrass ([4]; Rate 62 g/ha): 0
Plant response rating, Barnyardgrass ([4]; Rate 125 g/ha): 0
Plant response rating, Rice [5, 29]: 0
Plant response rating, Rice [5, 30]: 0
Plant response rating, Morningglory [6, 29]: 0
Plant response rating, Morningglory [6, 30]: 0
Plant response rating, Crabgrass [7, 29]: 100
Plant response rating, Crabgrass [7, 30]: 100
Plant response rating, Lambsquarters [8, 29]: 100
Plant response rating, Lambsquarters [8, 30]: 0
Plant response rating, Pigweed [9, 29]: 100
Plant response rating, Pigweed [9, 30]: 100
Plant response rating, Velvetleaf [10, 29]: 80
Plant response rating, Velvetleaf [10, 30]: 0
Plant response rating, Corn [11, 29]: 0
Plant response rating, Corn [11, 30]: 0
Plant response rating, Foxtail, Giant [12, 29]: 50
Plant response rating, Foxtail, Giant [12, 30]: 0
Plant response rating, Barnyardgrass [13, 29]: 0
Plant response rating, Barnyardgrass [13, 30]: 30
Plant response rating, Cocklebur [14, 29]: 70
Plant response rating, Cocklebur [14, 30]: 0
Plant response rating, Surinam grass [15, 29]: 40
Plant response rating, Surinam grass [15, 30]: 0
Plant response rating, Blackgrass [16, 31]: 0
Plant response rating, Blackgrass [16, 32]: 0
Plant response rating, Wheat [17]: 0
Plant response rating, Wild Oat [18]: 0
Plant response rating, Morningglory [19]: 60
Plant response rating, Crabgrass [20, 31]: 0
Plant response rating, Crabgrass [20, 32]: 0
Plant response rating, Lambsquarters [21]: 90
Plant response rating, Pigweed [22]: 70
Plant response rating, Velvetleaf [23]: 70
Plant response rating, Corn [24, 31]: 0
Plant response rating, Corn [24, 32]: 0
Plant response rating, Foxtail, Giant [25, 31]: 0
Plant response rating, Foxtail, Giant [25, 32]: 0
Plant response rating, Barnyardgrass [26, 31]: 0
Plant response rating, Barnyardgrass [26, 32]: 0
Plant response rating, Cocklebur [27, 31]: 30
Plant response rating, Cocklebur [27, 32]: 30
Plant response rating, Surinam grass [28, 31]: 0
Plant response rating, Surinam grass [28, 32]: 0
